# Data from US20210332139A1, “MODULATION OF LEUKOCYTE ACTIVITY IN TREATMENT OF NEUROINFLAMMATORY DEGENERATIVE DISEASE” (Leuvas Therapeutics, priority 2013, published 2021).
# Columns and labels:
# [1] = system: human primary PMNs; test: Static adhesion of human primary PMNs to ICAM-1 with signaling inhibitors; assay type: cell-based; conditions: for Adherent hPMNs to ICAM-1, n.t. (resting), Mean / Adherent hPMNs to ICAM-1, fMLP, Mean / Adherent hPMNs to ICAM-1, Aβ oligo, Mean: 30 min; for Adherent hPMNs to ICAM-1, fMLP, Mean: then 50 nM fMLP 1 min; for Adherent hPMNs to ICAM-1, Aβ oligo, Mean: then 10 μM Aβ 1 min; for Blockade of Aβ-induced adhesion of human neutrophils: result in words
# Description: As a model system, human primary PMNs were isolated form healthy donors stimulated to very rapid adhesion to purified human ICAM-1, ligand for the β2 integrins LFA-1 and Maci. fMLP (the classical chemoattractant) was the positive control. […] PMNs were treated for 30 min. with different concentrations of inhibitors followed by stimulation for 1 min with 50 nM fMLP or with 10 μM Aβ. The number of adherent cells was quantified by computer-assisted evaluation. Statistical analysis was SD.
# [2] = system: human neutrophils; test: Isoluminol chemiluminescence ROS assay, human neutrophils; assay type: cell-based; conditions: result in words
# Description: One of the mechanisms of neuronal damage by beta-amyloid in Alzheimer's disease is the generation of reactive oxygen species (ROS). We determined whether Aβ1-42 oligomers induce ROS production in neutrophils by using a chemiluminescence assay.
# (§1) Isoluminol-based chemiluminescence assays were performed in HGCa in the presence of horseradish peroxidase (HRP) and isoluminol (both from Sigma-Aldrich) in a temperature-controlled Multilabel Count Victor X5 (Perkin Elmer). Assays were run in dark 96 well plates precoated with 250 μg/ml human fibrinogen in HGCa containing (final concentration): 100 μM isoluminol and 8 U/ml HRP. After addition of 1×10^5 human neutrophils or 7.5×10^5 mouse neutrophils, plates were left at 37° C. for 5-10 min and the reaction started by addition of the stimulus. Light emission was recorded every minute.
# (§2) We used the chemotactic peptide fMLP as positive control. […] Data are mean+/−SD for three independent experiments.
# [3] = system: neutrophils; test: Rapid adhesion of neutrophils, soluble versus fibrillary Aβ1-42; assay type: cell-based; conditions: 30 μM, mean+/−SD
# Excerpt: Although two-times less efficient than the soluble form, fibrillary Aβ triggered a significant increase of rapid neutrophil adhesion on both ICAM-1 and fibrinogen (Table 8; data are expressed as the mean+/−SD of bound cells in 0.2 mm^2 from three independent experiments made in duplicate).
# [4] = system: Bend.3 endothelial cell line; test: Adhesion molecule expression on Bend.3 endothelial cells (immunofluorescence); assay type: cell-based, mouse; design: key: −: VCAM-1 and selectins were not expressed (indicated by -, Table 2); constitutively expressed at low levels on endothelial cells (indicated by +/−, some vessels were positive for ICAM-1, Table 2); an increase of ICAM-1 expression (indicated by +, Table 2); conditions: Bend.3 cells, 25 U/ml TNFα, 18 h, positive control
# Description: We performed in vitro experiments to study the effect of soluble Aβ1-42 oligomers on the endothelial cell line Bend.3, derived from mouse cerebral cortex purchased by ATCC& Cell Biology Collection (CRL-2299TM).
# Briefly, Bend.3 were cultured at a concentration of 20×10^3/ml on a glass coverslip in 24-well plates containing DMEM supplemented with 10% Fetal Calf Serum (FCS). Cells were stimulated with 10 μM Aβ 1-42, for 18 h in DMEM with 1% FCS. […] positive control, cells were treated with 25 U/ml of TNFα for 18 h in DMEM with 1% FCS. Bend.3 were rinsed with PBS and fixed with 4% PFA for 10 minutes. Cells were washed with PBS incubated with blocking buffer for 1 h at RT° C. Primary antibodies were diluted in 1% Bovine Serum Albumin (BSA) PBS. Cells were incubated overnight at 4° C. with 50 μg/ml anti-VCAM (hybridoma MK2.7), 10 μg/ml anti-ICAM (hybridoma YN1.7), 0.5 μg/ml anti-CD31 (370700, Invitrogen), 5 μg/ml anti-E-selectin (hybridoma RME-1) and 1.5 μg/ml anti-P-selectin (CD62P, BD Pharmigen). The day after, cells were rinsed 2 times with PBS and then incubated with 7.5 μg/ml biotinylated secondary antibody (rabbit anti-rat, T0226, VectorLab) for 1 h at RT° C. Cells were rinsed 2 times with PBS and incubated with 25 μg/ml Avidin-TexasRed (A2006, Vector Lab) for 1 h at RT° C. in the dark. After rinsing in PBS, cells were incubated with 1 μg/ml Dapi (D9542, Sigma-Aldrich, St. Louis, Mo.), for 5 minutes in the dark. Finally, glass coverslip was transferred on glass slides and mounted with Dako medium (S3023, DAKO NORTH AMERICA, Carpinteria, Calif.). Glass slides were kept at 4° C. in the dark and acquired by LEICA fluorescence microscopy (DM6000B, LEICA, Germany).
# We analyzed the expression of VCAM-1, ICAM-1, E- and P-selectin on Bend.3 after Aβ1-42 oligomers stimulation. TNF-α stimulation, which is well known to up-regulate the adhesion molecules expression, was used as positive control. We evaluated a dose-response effect of Aβ1-42 soluble oligomers on Bend.3 cells, ranging from 1 to 10 μM after 6 or 18 hours of treatment. After 18 h of treatment with 10 μM Aβ we observed a significant up-regulation of […] compared to non-stimulated control cells (CTRL) (Table 2). […] ICAM-1 was constitutively expressed at low levels on endothelial cells (indicated by +/−, some vessels were positive for ICAM-1, Table 2), but 18 h treatment with Aβ1-42 led to an increase of ICAM-1 expression (indicated by +, Table 2).
# [5] = system: mouse neutrophils; test: Isoluminol chemiluminescence ROS assay, mouse neutrophils; assay type: cell-based; conditions: mean+/−SD
# Description: as §1, §2
# Data are mean+/−SD counts per second.
# [6] = system: human neutrophils; test: Rapid human neutrophil adhesion to ICAM-1, inhibition by bocMLF and PTx; assay type: cell-based
# Description: It is known that one of the receptors for Aβ is the receptor for fMLP, formylpeptide chemotactic receptor (FPR). To evaluate the contribution of this GPCR receptor on Aβ-dependent neutrophil adhesion, we inhibited its function using boc-MLF, a formyl-peptide chemotactic receptor antagonist. Human neutrophils were incubated for 2 minutes with buffer (control) or with oligomeric Aβ. 0.1 μM fMLP was used as a positive control. Values are expressed as the mean counts of bound cells in 0.2 mm^2 from three independent experiments in duplicate. Error bars represent SD. […] To exclude the possibility that rapid adhesion triggering was a consequence of a generic plasma membrane alteration due to the lipophilic nature of Aβ, we evaluated rapid adhesion in lymphocytes, which are known to lack fMLP receptors.
Molecule,Blockade of Aβ-induced adhesion of human neutrophils [1],"Adherent hPMNs to ICAM-1, n.t. (resting), Mean ([1]; inhibitor 100 μM)","Adherent hPMNs to ICAM-1, fMLP, Mean ([1]; inhibitor 100 μM)","Adherent hPMNs to ICAM-1, Aβ oligo, Mean ([1]; inhibitor 100 μM)",other results
N#C/C(=C/c1ccc(O)c(O)c1)C(=O)NCc1ccccc1 [AG490],can block,,,,"Adherent hPMNs to ICAM-1, n.t. (resting), Mean ([1]; inhibitor 200 μM): 23.2; Adherent hPMNs to ICAM-1, fMLP, Mean ([1]; inhibitor 200 μM): 274.5; Adherent hPMNs to ICAM-1, Aβ oligo, Mean ([1]; inhibitor 200 μM): 258.6"
"COc1cc(Nc2c(C#N)cnc3cc(OCCCN4CCN(C)CC4)c(OC)cc23)c(Cl)cc1Cl [Bosutinib, bosutinib]",,19.3,98.2,95.1,
C[C@@H]1CCN(C(=O)CC#N)C[C@@H]1N(C)c1ncnc2[nH]ccc12 [CP-690550],can block,,,,"Adherent hPMNs to ICAM-1, n.t. (resting), Mean ([1]; inhibitor 200 μM): 22.1; Adherent hPMNs to ICAM-1, fMLP, Mean ([1]; inhibitor 200 μM): 209.6; Adherent hPMNs to ICAM-1, Aβ oligo, Mean ([1]; inhibitor 200 μM): 172.4"
c1ccc2c(c1)[I+]c1ccccc1-2 [DPI],,,,,Effect on fMLP and Aβ1-42 ROS responses [2]: suppressed
"Cc1nc(Nc2ncc(C(=O)Nc3c(C)cccc3Cl)s2)cc(N2CCN(CCO)CC2)n1 [Dasatinib, dasatinib]",,,,,"Adherent hPMNs to ICAM-1, n.t. (resting), Mean ([1]; inhibitor 20 μM): 24.9; Adherent hPMNs to ICAM-1, fMLP, Mean ([1]; inhibitor 20 μM): 230.8; Adherent hPMNs to ICAM-1, Aβ oligo, Mean ([1]; inhibitor 20 μM): 227.5"
NC(=O)c1cccc(-c2cc(Nc3ccc(OC(F)(F)F)cc3)ncn2)c1 [GNF-2],can block,25.2,144.2,115.5,
"C=CC(=O)N1CCC[C@@H](n2nc(-c3ccc(Oc4ccccc4)cc3)c3c(N)ncnc32)C1 [Ibrutinib, ibrutinib]",,21.9,80.0,78.0,
"Cc1ccc(NC(=O)c2ccc(CN3CCN(C)CC3)cc2)cc1Nc1nccc(-c2cccnc2)n1 [Imatinib, imatinib]",can block,23.5,124.9,109.3,
"Oc1cc(O)cc(/C=C/c2ccc(O)c(O)c2)c1 [Piceatannol, piceatannol]",,,,,"Adherent hPMNs to ICAM-1, n.t. (resting), Mean ([1]; inhibitor 50 μM): 21.0; Adherent hPMNs to ICAM-1, fMLP, Mean ([1]; inhibitor 50 μM): 218.7; Adherent hPMNs to ICAM-1, Aβ oligo, Mean ([1]; inhibitor 50 μM): 276.1"
"N#CC[C@H](C1CCCC1)n1cc(-c2ncnc3[nH]ccc23)cn1 [Ruxolitinib, ruxolitinib]",,17.0,243.8,244.5,
Cc1cnc(Nc2ccc(OCCN3CCCC3)cc2)nc1Nc1cccc(S(=O)(=O)NC(C)(C)C)c1 [TG101348],can block,20.1,147.2,134.8,
COc1cc2ncnc(Nc3ccc(O)c(Br)c3)c2cc1OC [WHI-P154],can block,23.5,207.8,218.8,
Fib Abeta: fibrillary form of Aβ1-42 peptide,,,,,Rapid adhesion to Fibrinogen [3]: 171 ± 21.8 bound cells in 0.2 mm^2; Rapid adhesion to ICAM-1 [3]: 457.3 ± 45.54 bound cells in 0.2 mm^2
TNF-a,,,,,CD31 expression (endothelial cell marker) [4]: +; E-sel expression [4]: +; ICAM-1 expression [4]: +; P-sel expression [4]: +; VCAM-1 expression [4]: +; ROS generation (chemiluminescence) ([5]; 1 min): 38 ± 20 counts per second; ROS generation (chemiluminescence) ([5]; 2 min): 62 ± 21 counts per second; ROS generation (chemiluminescence) ([5]; 3 min): 102 ± 28 counts per second; ROS generation (chemiluminescence) ([5]; 4 min): 136 ± 26 counts per second; ROS generation (chemiluminescence) ([5]; 5 min): 187 ± 14 counts per second
bocMLF,inhibits,20.1,55.0,81.8,"Neutrophil adhesion to ICAM-1 after inhibitor pre-treatment ([6]; buffer (control), no stimulus): 17.3 ± 6.6 bound cells in 0.2 mm^2; Neutrophil adhesion to ICAM-1 after inhibitor pre-treatment ([6]; stimulated 2 minutes with oligomeric Aβ): 74.8 ± 25.5 bound cells in 0.2 mm^2; Neutrophil adhesion to ICAM-1 after inhibitor pre-treatment ([6]; stimulated with 0.1 μM fMLP): 69 ± 26.5 bound cells in 0.2 mm^2"
